Laboratory results published in patent publication US8987246B2, “Methods for treatment of autism spectrum disorder” (The Johns Hopkins University, priority 2012, dated 2015).

Key:
individuals with SLOS = conditions: cited from earlier work
[1] = test system: subjects with Smith-Lemli-Opitz Syndrome; test: Retrospective analysis of rate of change in current state ADI scores before and after cholesterol supplementation; assay type: in vivo, human; conditions: for Cholesterol effect (regression coefficient) on average change in ADI Nonverbal score per year / Cholesterol effect (regression coefficient) on average change in ADI Repetitive score per year / Cholesterol effect (regression coefficient) on average change in ADI Social score per year / Cholesterol effect (regression coefficient) on average change in ADI Verbal score per year: negative = improvement
Procedure: Cholesterol Supplementation Improved Behavioral Symptoms and May Improve ASD Features in SLOS. The Autism Diagnostic Interview was conducted with 6 SLOS individuals, and data was obtained for 3 “current state” time-points: age 4-5, just before starting cholesterol supplementation, and present while on cholesterol. The change in the score of three ADI algorithm domains—Social, Communication, and Restricted, Repetitive, and Stereotyped Behavior—was estimated. Because the time between visits varied from subject to subject, a model was developed to control for age and time lapse between tests. A detailed description of the model and outcomes is included in Example 1. In summary, on the Social domain, the individuals on cholesterol supplementation improved by an average of 7.07 points more than children not on supplementation (p value 0.008). The ADI Communication domain has a non-verbal score that is completed for all individuals and a verbal score that is completed in those individuals who have phrase speech. The value for the non-verbal score is within the verbal total score. In the non-verbal children, the language domain score improved 2.51, p value 0.04. […] In the Repetitive domain, the children worsened an average of 1.54 points (p value<0.001) (Example 1).
The variables listed in the analysis of the primary outcomes are below. i=1, . . . , 6 children, j=2, 3 visits • socialchij=average change in social measure per year for child i between age at visit j and age at visit j−1. (More specifically, socialchij is social score at visit j minus social score at visit j−1, divided by the number of years between visits j and j−1.) • verbalchij=average change in verbal measure per year for child i between age at visit j and age at visit j−1. • nonverbalchij=average change in nonverbalchij measure per year for child i between age at visit j and age at visit j−1. • repetchij=average change in repetitive measure per year for child i between age at visit j and age at visit j−1.
ageij=age of child i at visit j at which measure was performed
agedifij=number of years between visit j and visit j−1
agecholij=age at which cholesterol supplementation began for child i
cholij=1 if cholesterol supplementation has occurred at prior to visit j for child i.
Note that the large improvements are consistent with large negative values. In other words, if a child has a large improvement in social score between visits j−1 and j, this will be reflected as a large negative value for socialchij.
So, the idea is to model the average change in scores before and after supplementation, adjusting for age, the number of years between visits, and the age at which supplementation occurred. To do this, our linear model for “social” is socialchij=β0i+[…]+β2agedifij+β3agecholij+β4cholij+eij
We use a linear regression model that allows for correlation between observations from the same individual. Using this model, we estimate the […] parameters in the model, which measure the direction and magnitude of the association between social score change and each of the covariates (i.e., age, age difference, age at cholesterol, and cholesterol). The same model was fit for each of the four outcomes. The table below gives the estimated coefficients for each of the 4 primary outcome variables.

[2] = 6 SLOS children, model with age, age difference, age at cholesterol, cholesterol
[3] = model leaving out age at cholesterol
[4] = model leaving out age difference from last visit

## CC(C)CCC[C@@H](C)[C@H]1CC[C@H]2[C@@H]3CC=C4C[C@@H](O)CC[C@]4(C)[C@H]3CC[C@]12C [Cholesterol, cholesterol]
Individuals with SLOS; SLOS, one group
  Developmental status over time with cholesterol supplementation: did not improve
Individuals with SLOS; SLOS, some reports
  Growth, speech articulation and neurodevelopmental status with cholesterol supplementation: improves
Individuals with SLOS; individuals with SLOS
  Irritability, sleep disturbance and obsessive compulsive behavior with cholesterol supplementation: improve with cholesterol supplementation
[1]; [2]
  Cholesterol effect (regression coefficient) on average change in ADI Nonverbal score per year: −2.51
  Cholesterol effect (regression coefficient) on average change in ADI Repetitive score per year: 1.54
  Cholesterol effect (regression coefficient) on average change in ADI Social score per year: −7.07
  Cholesterol effect (regression coefficient) on average change in ADI Verbal score per year: −6.97
[1]; SLOS children on cholesterol supplementation, p value<0.001
  ADI Repetitive domain: average worsening: 1.54 points
[1]; SLOS individuals on cholesterol supplementation, p value 0.008
  ADI Social domain: average improvement more than children not on supplementation: 7.07 points
[1]; children who have already begun supplementation, not accounting for age or other factors
  Association of cholesterol supplementation with social, verbal and non-verbal scores (correlation matrix, FIG. 1): scores tend to be lower on average
[1]; in SLOS
  Social and communication abilities with cholesterol supplementation: improvement was found
[1]; [3]
  Cholesterol effect (regression coefficient) on average change in ADI Nonverbal score per year: −2.56
  Cholesterol effect (regression coefficient) on average change in ADI Repetitive score per year: 1.23
  Cholesterol effect (regression coefficient) on average change in ADI Social score per year: −5.14
  Cholesterol effect (regression coefficient) on average change in ADI Verbal score per year: −6.77
[1]; [4]
  Cholesterol effect (regression coefficient) on average change in ADI Nonverbal score per year: −2.05
  Cholesterol effect (regression coefficient) on average change in ADI Repetitive score per year: 1.45
  Cholesterol effect (regression coefficient) on average change in ADI Social score per year: −6.97
  Cholesterol effect (regression coefficient) on average change in ADI Verbal score per year: −4.14
[1]; non-verbal SLOS children on cholesterol supplementation, p value 0.04
  ADI language domain (non-verbal) score improvement: 2.51
[1]; verbal SLOS children on cholesterol supplementation, p value<0.001
  ADI verbal score average change (given as increase): 6.97 points
